Each structure is given as a SMILES string. Like-named read-outs stand apart in the source and are kept apart here.

In test [1] the target is T1, adenosine A2 receptor (Rattus norvegicus, UniProt P30543).
T1 construct: from tissue
The test can be described thus: Adenosine A2 receptor binding capacity.

Test [2] concerns the target T2, adenosine A1 receptor (Rattus norvegicus, UniProt P25099).
T2 sequence (P25099 1-326): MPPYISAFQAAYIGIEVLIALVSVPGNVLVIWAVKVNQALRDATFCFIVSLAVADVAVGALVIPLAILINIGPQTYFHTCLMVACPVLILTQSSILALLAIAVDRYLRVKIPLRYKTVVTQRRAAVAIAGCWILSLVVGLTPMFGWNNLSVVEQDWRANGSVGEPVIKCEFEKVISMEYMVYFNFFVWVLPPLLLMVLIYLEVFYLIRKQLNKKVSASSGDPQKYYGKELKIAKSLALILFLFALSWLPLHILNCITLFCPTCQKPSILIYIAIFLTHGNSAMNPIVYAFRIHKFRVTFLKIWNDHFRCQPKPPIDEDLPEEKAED
The test can be described thus: biochemical.

Test [3] has as its target T3, adenosine A3 receptor (Homo sapiens, UniProt P0DMS8).
T3 construct: expressed in transfected cells; host or cells: HEK-293
T3 sequence (P0DMS8 1-318): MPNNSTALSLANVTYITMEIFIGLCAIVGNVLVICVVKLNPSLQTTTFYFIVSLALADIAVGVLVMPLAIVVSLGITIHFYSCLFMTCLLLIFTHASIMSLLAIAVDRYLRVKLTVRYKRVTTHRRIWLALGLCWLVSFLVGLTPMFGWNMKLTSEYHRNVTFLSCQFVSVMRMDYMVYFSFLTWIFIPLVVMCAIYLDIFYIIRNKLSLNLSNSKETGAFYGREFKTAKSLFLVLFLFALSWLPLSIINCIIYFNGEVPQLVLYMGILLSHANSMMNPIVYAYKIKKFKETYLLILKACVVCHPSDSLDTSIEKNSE
The test is described as follows: biochemical. To be noted: [125I]AB-MECA, membrane of HEK-293 cells transformed with A3 receptor plasmid, read-out: Receptor binding capacity (IC50) Adenosine A3.

[4] abbreviates: adenosine A2 receptor, read-out: Receptor binding capacity (IC50) Adenosine A2.

T1 sequence (P30543 whole entry): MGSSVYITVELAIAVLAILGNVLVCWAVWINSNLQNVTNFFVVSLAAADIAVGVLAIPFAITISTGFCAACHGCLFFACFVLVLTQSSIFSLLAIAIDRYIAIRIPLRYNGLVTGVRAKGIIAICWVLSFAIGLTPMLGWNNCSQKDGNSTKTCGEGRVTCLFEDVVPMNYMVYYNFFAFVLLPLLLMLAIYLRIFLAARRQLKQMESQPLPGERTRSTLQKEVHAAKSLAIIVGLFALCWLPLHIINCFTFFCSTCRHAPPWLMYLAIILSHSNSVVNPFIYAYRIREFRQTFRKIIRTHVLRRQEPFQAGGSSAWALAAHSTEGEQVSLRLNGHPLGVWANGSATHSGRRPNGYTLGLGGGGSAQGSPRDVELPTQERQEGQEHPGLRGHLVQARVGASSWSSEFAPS

With `CCCCc1nc2nc[nH]c2c2nc(-c3ccccc3O)nn12` [Example 6], the IC50 in test [1] (setting [4]) is 247 nM; in test [2] it was 178 nM; in test [3], below 1 nM.

Take `Cc1cccc(-c2nc3nc[nH]c3c3nc(-c4ccccc4)nn23)c1` [Example 35]: the IC50 in test [1] (setting [4]) was 111 nM; in test [3] it was below 1 nM. For `CCCCc1nc2nc[nH]c2c2nc(-c3ccc(OC)c(OC)c3)nn12` [Example 51] the same measures were above 10000 nM and 1.6 nM. As for `Cc1nc2nc[nH]c2c2nc(-c3cccnc3)nn12` [Example 3], the IC50 in test [1] (setting [4]) stood at 3000 nM; in test [2] it was 2600 nM; in test [3] it was 95 nM.

In turn, `Cc1nc2[nH]cnc2c2nc(-c3ccccc3)nn12` [Example 1, 5-methyl-8-phenyl-1H-1,2,4-triazolo[5,1-i]purine] returned an IC50 in test [2] of 101 nM.

For `CCCCc1nc2nc[nH]c2c2nc(-c3ccc(CP(=O)(OCC)OCC)cc3)nn12` [Example 65], the IC50 in test [1] was above 10000 nM; in test [3] it was 3.7 nM.

For `CCCCc1nc2nc[nH]c2c2nc(-c3ccc(N(Cc4ccccc4)Cc4ccccc4)cc3)nn12` [Example 60], the IC50 in test [1] (setting [4]) was above 10000 nM; in test [3] it was 15 nM.

As to `CCCCc1nc2nc[nH]c2c2nc(-c3ccc4ccccc4c3)nn12` [Example 64], the IC50 in test [1] (setting [4]) was 716 nM; in test [3], below 1 nM.

As to `CCCCc1nc2nc[nH]c2c2nc(-c3ccc(SC)cc3)nn12` [Example 66], the IC50 in test [1] (setting [4]) is above 10000 nM.

Turning to `CCCCc1nc2nc[nH]c2c2nc(-c3ccc(NCc4ccccc4)cc3)nn12` [Example 61], the IC50 in test [1] (setting [4]) was 1800 nM; in test [3], below 1 nM. Regarding `CCCc1nc2nc[nH]c2c2nc(-c3ccccc3)nn12` [Example 23], in test [1] (setting [4]), the IC50 stood at 115 nM.

The compound `CCCCc1nc2[nH]cnc2c2nc(-c3ccco3)nn12` [Example 15] came in with an IC50 in test [2] of 42 nM.

In the case of `CCCCc1nc2nc[nH]c2c2nc(-c3ccc(-c4ccccc4)cc3)nn12` [Example 50], the IC50 in test [1] (setting [4]) is above 10000 nM. `COc1cc(-c2nc3c4[nH]cnc4nc(-c4ccccc4)n3n2)cc(OC)c1OC` [Example 19]: the IC50 came to 546 nM in test [1] (setting [4]), 93 nM in test [2] and 1.5 nM in test [3]. As for `CCCCc1nc2[nH]cnc2c2nc(-c3ccc(C)cc3)nn12` [Example 5], in test [1] (setting [4]), the half-maximal inhibitory concentration (IC50) was found to be 184 nM. Regarding `CCCCc1nc2nc[nH]c2c2nc(-c3ccc(N(CC)CC)cc3)nn12` [Example 54], the IC50 in test [1] (setting [4]) was above 10000 nM; in test [3], 7.8 nM. For the compound `CCCCc1nc2[nH]cnc2c2nc(-c3ccc(C(C)(C)C)cc3)nn12` [Example 69], in test [1] (setting [4]), the IC50 was above 10000 nM.

Turning to `CCCCc1nc2nc[nH]c2c2nc(-c3ccc(Oc4ccccc4)cc3)nn12` [Example 62], the IC50 in test [1] (setting [4]) is above 10000 nM; in test [3] it was 6.6 nM. Take `CCCCc1nc2nc[nH]c2c2nc(/C=C/c3ccccc3)nn12` [Example 17]: the results for the IC50 in test [1] (setting [4]), in test [2] and in test [3] were 723 nM, 1300 nM and 1.1 nM, respectively.

Turning to `CCCCc1nc2nc[nH]c2c2nc(-c3ccc(NC)cc3)nn12` [Example 63], the IC50 stood at 2400 nM in test [1] (setting [4]) and 1 nM in test [3]. Turning to `CCCCc1nc2nc[nH]c2c2nc(-c3ccc(OCc4ccccc4)cc3)nn12` [Example 49], the concentration for half-maximal inhibition (IC50) in test [1] (setting [4]) was above 10000 nM; in test [3], 1.7 nM. `CCCCCc1nc2nc[nH]c2c2nc(-c3ccccc3)nn12` [Example 34, 5-pentyl-8-phenyl-1H-1,2,4-triazolo[5,1-i]purine]: the IC50 in test [1] (setting [4]) was 205 nM.

Take `CCCCc1nc2nc[nH]c2c2nc(-c3ccc(C(C)C)cc3)nn12` [Example 68]: the IC50 was above 10000 nM in test [1] (setting [4]) and 5.1 nM in test [3].

Turning to `CCCCc1nc2nc[nH]c2c2nc(-c3ccc(CC)cc3)nn12` [Example 67], the IC50 in test [1] (setting [4]) came to 1800 nM; in test [3], 5.4 nM. With `CCCCc1nc2[nH]cnc2c2nc(-c3ccc(N(C)C)cc3)nn12` [Example 42], the IC50 in test [1] (setting [4]) is above 10000 nM. In the case of `CCCCCCCc1nc2nc[nH]c2c2nc(-c3ccccc3)nn12` [Example 37], the IC50 in test [1] (setting [4]) is 3700 nM; in test [3], 9 nM. Take `c1ccc(-c2nc3c4nc[nH]c4nc(-c4ccccc4)n3n2)cc1` [Example 18]: in test [2], half-maximal inhibition (IC50) required 6.4 nM. With `CCCCc1nc2[nH]cnc2c2nc(-c3ccc(OCCC)cc3)nn12` [Example 45], in test [1] (setting [4]), the IC50 was above 10000 nM. As to `CCCCc1nc2[nH]cnc2c2nc(-c3ccc(C(F)(F)F)cc3)nn12` [Example 59], in test [1] (setting [4]), the IC50 was above 10000 nM. Turning to `COc1cc(-c2nc3c4[nH]cnc4nc(C)n3n2)cc(OC)c1OC` [Example 2], in test [3], the IC50 was determined as 96 nM. Consider `CCCCc1nc2[nH]cnc2c2nc(-c3cc(OC)c(OC)c(OC)c3)nn12` [Example 12, 5-n-butyl-8-(3,4,5-trimethoxyphenyl)-1H-1,2,4-triazolo[5,1-i]purine], for which the IC50 in test [2] is 1000 nM. For `CCCCc1nc2nc[nH]c2c2nc(-c3ccc(OC(F)(F)F)cc3)nn12` [Example 58], the IC50 in test [1] (setting [4]) was above 10000 nM; in test [3] it was 5.8 nM. `CCCCc1nc2[nH]cnc2c2nc(-c3cccnc3)nn12` [Example 13]: in test [2], half-maximal inhibition (IC50) was put at 228 nM. As for `c1ccc(-c2nc3nc[nH]c3c3nc(-c4cccnc4)nn23)cc1` [Example 20], the IC50 in test [1] (setting [4]) was 31 nM; in test [2], 21 nM; in test [3], 7.4 nM.

What is called IC50 is the concentration that gives 50% inhibition.

Values taken from patent publication US6288070A, “Triazolopurine derivatives, medicinal composition containing the derivatives, adenosine A3 receptor compatibilizing agent, and asthmatic remedy” (Otsuka Pharmaceutical Factory, Inc., priority 1998, dated 2001).
